# Measurements from PubChem BioAssay (NCI).
#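 Protocol summary: plate cells (96-well), add compound at 5 concentrations, incubate 48 h, interpolate endpoints linearly. GI50 = concentration required for 50% inhibition of growth. At the TGI there is no net growth.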
# Tests used:
# Test in all cases: inhibition of tumour cell growth, NCI panel, 48 h
# ACHN renal = tested on: ACHN renal
# M14 melanoma = tested on: M14 melanoma
# NCI-H226 lung = tested on: NCI-H226 lung
# OVCAR-3 ovarian = tested on: OVCAR-3 ovarian
# SF-268 CNS = tested on: SF-268 CNS
# SK-MEL-2 melanoma = tested on: SK-MEL-2 melanoma
# SW-620 colon = tested on: SW-620 colon
# UACC-257 melanoma = tested on: UACC-257 melanoma
# UO-31 renal = tested on: UO-31 renal
# HCT-116 colon = tested on: HCT-116 colon
SMILES,GI50 (ACHN renal),TGI (ACHN renal),GI50 (M14 melanoma),TGI (M14 melanoma),GI50 (NCI-H226 lung),TGI (NCI-H226 lung),GI50 (OVCAR-3 ovarian),TGI (OVCAR-3 ovarian),GI50 (SF-268 CNS),TGI (SF-268 CNS),GI50 (SK-MEL-2 melanoma),TGI (SK-MEL-2 melanoma),GI50 (SW-620 colon),TGI (SW-620 colon),GI50 (UACC-257 melanoma),TGI (UACC-257 melanoma),GI50 (UO-31 renal),TGI (UO-31 renal),TGI (HCT-116 colon),GI50 (HCT-116 colon)
CC(=O)OC1Oc2ccccc2-c2oc(=O)c(-c3cc4ccccc4oc3=O)cc21 (stereo not drawn),14.1 µM,29.6 µM,36.6 µM,> 100 µM,17.1 µM,35.4 µM,19.1 µM,46.6 µM,19.6 µM,40.9 µM,35 µM,> 100 µM,65 µM,> 100 µM,14.1 µM,36.6 µM,18 µM,35.4 µM,–,–
CC/C=C/c1cc2cc[nH]c2c2c1C(C)C[C@@H]2C (stereo partly drawn),–,> 100 µM,–,74.9 µM,–,39 µM,–,40.5 µM,–,–,–,–,–,94.8 µM,–,> 100 µM,–,69.6 µM,29.7 µM,–
O=C(c1ccc(Cl)cc1)c1ccc(OCCSCCCCCCCCCCSCCOc2ccc(C(=O)c3ccc(Cl)cc3)cc2)cc1,–,> 100 µM,–,–,–,> 100 µM,–,> 100 µM,–,> 100 µM,–,> 100 µM,–,> 100 µM,–,> 100 µM,–,> 100 µM,–,–
Cc1cc(=O)oc2cc(OS(C)(=O)=O)ccc12,–,> 100 µM,–,> 100 µM,–,> 100 µM,–,> 100 µM,–,> 100 µM,–,> 100 µM,–,> 100 µM,–,> 100 µM,–,–,> 100 µM,–
O=C(Nc1cccc(-n2cc(-c3ccncc3)c(-c3ccc(O)c(Cl)c3)n2)c1)Nc1cccc(C(F)(F)F)c1,2.51 µM,8.4 µM,1.74 µM,3.94 µM,2.52 µM,9.02 µM,–,–,2.59 µM,9.98 µM,2.35 µM,4.75 µM,2.66 µM,8.21 µM,2.35 µM,5.48 µM,2.01 µM,7.05 µM,5.87 µM,2.05 µM
O=C(CC1C=CCS1(=O)=O)NCc1ccccc1 (stereo not drawn),–,> 100 µM,–,> 100 µM,–,> 100 µM,–,> 100 µM,–,> 100 µM,–,–,–,> 100 µM,–,> 100 µM,–,> 100 µM,> 100 µM,–
CC1(O)CCC2(C#N)CCC1C2O (stereo not drawn),–,> 100 µM,–,> 100 µM,–,> 100 µM,–,> 100 µM,–,> 100 µM,–,> 100 µM,–,–,–,> 100 µM,–,> 100 µM,> 100 µM,–
CCNCCCn1c2c(c3ccc([N+](=O)[O-])cc3c1=O)C(=O)c1cc(OC)cnc1-2,0.0313 µM,0.144 µM,0.0408 µM,0.437 µM,–,–,0.0616 µM,0.302 µM,0.0527 µM,1.5 µM,0.349 µM,1.9 µM,0.0653 µM,3.57 µM,0.157 µM,0.92 µM,0.0327 µM,0.176 µM,–,–
N#CC1C2CCC3(CC2CCN1C(=O)c1ccccc1)OCCO3 (stereo not drawn),–,> 100 µM,–,> 100 µM,–,–,–,> 100 µM,–,> 100 µM,–,61.9 µM,–,> 100 µM,–,> 100 µM,–,> 100 µM,> 100 µM,–
Cc1cc2cn3c4cccnc4[nH]c(=O)c3c2cc1C,1.73 µM,3.1 µM,–,–,11.2 µM,28 µM,1.77 µM,3.22 µM,–,–,–,–,1.09 µM,2.47 µM,1.67 µM,3.41 µM,1.5 µM,2.97 µM,2.76 µM,1.45 µM
Clc1ccc(Nc2ccnc(NCCCNc3ccnc4cc(Cl)ccc34)n2)cc1,1.57 µM,3.04 µM,–,–,–,–,–,–,–,–,1.98 µM,3.61 µM,1.49 µM,3.11 µM,1.87 µM,3.43 µM,1.68 µM,3.31 µM,3.1 µM,1.42 µM
C1=Nc2ccccc2C=Nc2ccccc2C=Nc2ccccc2C=Nc2ccccc21.[Cl-].[Pt+2],19 µM,49 µM,30.2 µM,> 100 µM,–,–,–,–,25.1 µM,75.9 µM,–,–,27.6 µM,> 100 µM,–,–,20.8 µM,45.5 µM,> 100 µM,25.9 µM
COc1cc(Nc2nc3ccc(C(F)(F)F)cc3nc2-c2ccccc2)cc(OC)c1OC,–,> 100 µM,–,> 100 µM,–,65.6 µM,–,> 100 µM,–,> 100 µM,–,> 100 µM,–,> 100 µM,–,85 µM,–,55.7 µM,–,–
O=C(O)C1CCCCC1c1c2ccc(=O)cc-2oc2cc(O)ccc12 (stereo not drawn),–,> 100 µM,–,78.6 µM,–,–,–,69.2 µM,–,> 100 µM,–,> 100 µM,–,> 100 µM,–,> 100 µM,–,> 100 µM,> 100 µM,–
Cc1ccc(Sc2sc(-c3ccccc3)nc2[P+](c2ccccc2)(c2ccccc2)c2ccccc2)cc1,0.268 µM,0.933 µM,0.326 µM,1.3 µM,–,–,0.346 µM,1.23 µM,0.366 µM,1.43 µM,0.275 µM,0.808 µM,0.319 µM,1.26 µM,0.328 µM,1.11 µM,0.24 µM,0.811 µM,1.11 µM,0.246 µM
COc1ccc2c(c1)/C(=C/c1cc(OC)c(OC)c(OC)c1)C(=O)N2C,3.6 µM,> 39.5 µM,–,–,4.85 µM,> 100 µM,2.03 µM,5.95 µM,2.39 µM,6.72 µM,3.29 µM,7.41 µM,1.59 µM,8.66 µM,7.88 µM,> 80.4 µM,3.91 µM,> 55.7 µM,13.3 µM,2.56 µM
CSc1ncnc2c1CCN2,–,–,> 100 µM,> 100 µM,–,–,> 100 µM,–,> 100 µM,> 100 µM,> 100 µM,> 100 µM,> 100 µM,> 100 µM,> 100 µM,> 100 µM,–,> 100 µM,> 100 µM,> 100 µM
O=C(NCc1ccncc1)C1COc2cc(-c3cc(=O)c4ccccc4o3)ccc2O1 (stereo not drawn),–,> 100 µM,–,> 100 µM,–,–,–,> 100 µM,–,–,–,> 100 µM,–,> 100 µM,–,> 100 µM,–,> 100 µM,> 100 µM,–
